This experiment addresses T1, Neuromedin-K receptor (Homo sapiens, UniProt P29371).
T1 sequence (P29371 whole entry): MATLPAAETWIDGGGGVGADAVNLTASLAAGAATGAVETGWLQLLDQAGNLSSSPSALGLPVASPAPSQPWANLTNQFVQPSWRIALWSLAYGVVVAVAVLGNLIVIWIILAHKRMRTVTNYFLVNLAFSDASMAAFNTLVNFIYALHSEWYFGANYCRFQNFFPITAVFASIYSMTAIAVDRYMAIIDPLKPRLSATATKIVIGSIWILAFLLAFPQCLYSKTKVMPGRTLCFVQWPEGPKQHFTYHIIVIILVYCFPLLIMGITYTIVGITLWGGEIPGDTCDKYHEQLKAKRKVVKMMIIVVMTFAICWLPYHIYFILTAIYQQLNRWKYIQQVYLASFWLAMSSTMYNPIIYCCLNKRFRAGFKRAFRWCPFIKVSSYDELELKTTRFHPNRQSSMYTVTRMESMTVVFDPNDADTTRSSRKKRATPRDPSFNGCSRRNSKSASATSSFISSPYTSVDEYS
Briefly: [3H]SR142801 Competition Binding Assay: hNK3 receptor binding experiment were performed using [3H]SR142801 (Catalog No. TRK1035, specific activity: 74.0 Ci/mmol, Amersham, GE Healthcare UK limited, Buckinghamshire, UK) and membrane isolated from HEK293 cells transiently expressing recombinant human NK3 receptor. After thawing, the membrane homogenates were centrifuged at 48,000×g for […] at 4° C., the pellets were resuspended in the 50 mM Tris-HCl, 4 mM MnCl2, 1 μM phosphoramidon, 0.1% BSA binding buffer at pH 7.4 to a final assay concentration of 5 μg protein/well. For inhibition experiments, membranes were incubated with [3H]SR142801 at a concentration equal to KD value of radioligand and 10 concentrations of the inhibitory compound (0.0003-10 μM) (in a total reaction volume of 500 μl) for 75 min at room temperature (RT). At the end of the incubation, membranes were filtered onto unitfilter (96-well white microplate with bonded GF/C filter preincubated 1 h in 0.3% PEI+0.3% BSA, Packard BioScience, Meriden, Conn.) with a Filtermate 196 harvester (Packard BioScience) and washed 4 times with ice-cold 50 mM Tris-HCl, pH 7.4 buffer. Nonspecific binding was measured in the presence of 10 μM SB222200 for both radioligands. […]. In kind it is cell membranes.

`CCN(C(=O)Oc1ccc(F)cc1)[C@@H]1CN(C(=O)C2CCN(c3ccc(OC(C)=O)cn3)CC2)C[C@H]1c1ccc(Cl)cc1`: the inhibitory constant (Ki) (in general, a measure of affinity in units of concentration, obtained from inhibition or displacement) was determined as 6 nM.

On to `CCN(C(=O)Oc1ccc(F)cc1)[C@@H]1CN(C(=O)C2CCN(c3ccc(C(F)(F)F)cn3)CC2)C[C@H]1c1ccc(F)c(F)c1`, for which the Ki came out at 9 nM.

Source of the values: ChEMBL document CHEMBL3886745, “Pyrrolidine compounds” (2016).
